The values below come from patent US20260201008A1, “SECRETIN-DERIVED GLP1R SELECTIVE AGONISTS” (GUBRA A/S, priority 2023, published 2026).

Data set [1] in a line: Fibril formation of crude library peptides (Thioflavin T). In kind it is physicochemical. More on the design: key: average ThT fluorescence emission at 480 nm (ex 450 nm), raw units. To be noted: Physical stability of peptides. In short, it runs like this:
(§1)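 Crude peptides at 267 μM in 50 mM sodium acetate pH 4.0 or 50 mM sodium phosphate pH 7.0, pre-incubated 1-2 h at room temperature, then 4 μM final ThT added. Turbidity read first as A600. ThT fluorescence (ex 450/em 480 nm) read every 10 min for 72 h at 40° C, with 5 min shaking before each read; fibril formation = average emission.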

Data set [2] is described as follows: Turbidity of crude library peptides (absorbance at 600 nm). Format: physicochemical. As to conditions: Physical stability of peptides. In short, it runs like this:
as §1

Another data set has as its target SCTR (Homo sapiens, UniProt P47872). Kind of data set: hSCTR potency, cAMP accumulation in CHO-K1 cells stably overexpressing hSCTR. Format: cell-based. More on the design: alternatively Euroscreen ES-712-AF; FAST-0161L; host or cells: CHO-K1. To be noted: cAMP accumulation, CHO-K1 cells overexpressing hSCTR; read-out: hSCTR pEC50 (converted). The method, boiled down:
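Cells plated at 2000/well in DPBS with 0.05% casein and 0.5 mM IBMX, stimulated 30 min at room temperature with graded compound doses; human secretin as positive control. cAMP read by TR-FRET after 1 h. Purified peptides tested at 11 3-fold dilutions, n=2; EC50 by variable-slope sigmoid fit.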
(cAMP levels reflect the balance of adenylyl cyclase and phosphodiesterase activity.)

The target in the next data set is GLP1R (Homo sapiens, UniProt P43220). Kind of data set: hGLP1R potency, cAMP accumulation in CHO-K1 cells stably overexpressing hGLP1R. In kind it is cell-based. On the set-up: host or cells: CHO-K1. To be noted: for EC50: cAMP accumulation, CHO-K1 cells overexpressing hGLP1R, read-out: hGLP1R pEC50 (converted); for SCTR EC50/GLP1R EC50 ratio: selectivity for hGLP1R over hSCTR, cAMP accumulation in CHO-K1 cells. The method, boiled down: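 CHO-K1 cells stably expressing hGLP1R (2000/well) in DPBS with 0.05% casein and 0.5 mM IBMX were stimulated 30 min at room temperature with graded compound doses; human GLP-1(7-36) served as positive control. cAMP was read by HTRF after 1 h; EC50 came from variable-slope sigmoid fits (purified peptides: 11-point 3-fold, n=2).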
Sequence of GLP1R (P43220 24-463): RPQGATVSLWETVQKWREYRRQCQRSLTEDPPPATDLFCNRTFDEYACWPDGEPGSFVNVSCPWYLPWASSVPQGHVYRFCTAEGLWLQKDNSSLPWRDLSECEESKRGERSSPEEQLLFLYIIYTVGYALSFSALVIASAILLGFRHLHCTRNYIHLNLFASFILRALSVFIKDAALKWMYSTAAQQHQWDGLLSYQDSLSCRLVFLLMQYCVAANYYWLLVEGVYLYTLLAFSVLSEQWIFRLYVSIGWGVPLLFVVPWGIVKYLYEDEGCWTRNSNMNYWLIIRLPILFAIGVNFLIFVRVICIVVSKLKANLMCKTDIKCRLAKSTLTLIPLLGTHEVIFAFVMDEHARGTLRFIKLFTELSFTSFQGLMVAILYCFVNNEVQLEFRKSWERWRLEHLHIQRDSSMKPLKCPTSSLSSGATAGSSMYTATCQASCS

Square brackets hold non-standard residues; d marks the D form. Peptide text beside a SMILES is read from it. Aib = CC(C)(N)C(=O)O

Sequence of SCTR (P47872 23-440): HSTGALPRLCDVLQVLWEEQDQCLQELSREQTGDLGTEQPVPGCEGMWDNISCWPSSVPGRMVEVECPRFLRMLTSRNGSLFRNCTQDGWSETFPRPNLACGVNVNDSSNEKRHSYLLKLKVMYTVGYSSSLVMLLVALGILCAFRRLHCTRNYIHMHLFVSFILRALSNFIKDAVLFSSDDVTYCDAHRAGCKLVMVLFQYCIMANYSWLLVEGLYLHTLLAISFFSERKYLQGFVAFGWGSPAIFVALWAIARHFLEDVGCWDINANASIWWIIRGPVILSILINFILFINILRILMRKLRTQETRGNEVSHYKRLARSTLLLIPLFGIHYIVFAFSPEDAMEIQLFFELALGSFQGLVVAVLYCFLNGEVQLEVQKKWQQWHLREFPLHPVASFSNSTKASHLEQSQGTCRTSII

In the case of `CC[C@H](C)[C@H](NC(=O)[C@H](Cc1ccccc1)NC(=O)[C@H](CCCNC(=N)N)NC(=O)[C@H](CCC(N)=O)NC(=O)[C@H](CC(C)C)NC(=O)[C@H](C)NC(=O)[C@H](C)NC(=O)CNC(=O)[C@H](CCC(=O)O)NC(=O)[C@H](CC(C)C)NC(=O)[C@H](CC(C)C)NC(=O)CNC(=O)[C@H](CO)NC(=O)C(C)(C)NC(=O)[C@H](CC(=O)O)NC(=O)[C@H](CO)NC(=O)[C@@H](NC(=O)[C@H](Cc1ccccc1)NC(=O)[C@@H](NC(=O)CNC(=O)[C@H](CCC(=O)O)NC(=O)C(C)(C)NC(=O)[C@@H](N)Cc1c[nH]cn1)[C@@H](C)O)[C@@H](C)O)C(=O)N[C@@H](CCC(N)=O)C(=O)N[C@@H](Cc1c[nH]c2ccccc12)C(=O)N[C@@H](CC(C)C)C(=O)N[C@H](C(N)=O)C(C)C` [compound 105] (H-H[Aib]EGTFTSD[Aib]SGLLEGAALQRFIQWLV-NH2), the Fibril formation in data set [1] is 4216. Besides, the “Turbidity (pH 7)” value in data set [2] was found to be 0.12. Further, the EC50 was 1580 nM at SCTR and 0.1 nM on GLP1R. In addition, the “SCTR EC50/GLP1R EC50 ratio” value at GLP1R amounted to 14710.
In the same order, the values of `CC[C@H](C)[C@H](NC(=O)[C@H](Cc1ccccc1)NC(=O)[C@H](CCCNC(=N)N)NC(=O)[C@H](CCC(N)=O)NC(=O)[C@H](CC(C)C)NC(=O)[C@H](C)NC(=O)[C@H](C)NC(=O)CNC(=O)[C@H](CCC(=O)O)NC(=O)[C@H](CC(C)C)NC(=O)[C@H](CC(C)C)NC(=O)[C@H](Cc1ccc(O)cc1)NC(=O)[C@H](CO)NC(=O)C(C)(C)NC(=O)[C@H](CC(=O)O)NC(=O)[C@H](CO)NC(=O)[C@@H](NC(=O)[C@H](Cc1ccccc1)NC(=O)[C@@H](NC(=O)CNC(=O)[C@H](CCC(=O)O)NC(=O)C(C)(C)NC(=O)[C@@H](N)Cc1c[nH]cn1)[C@@H](C)O)[C@@H](C)O)C(=O)N[C@@H](CCC(N)=O)C(=O)N[C@@H](Cc1c[nH]c2ccccc12)C(=O)N[C@@H](CC(C)C)C(=O)N[C@H](C(N)=O)C(C)C` [compound 106] (H-H[Aib]EGTFTSD[Aib]SYLLEGAALQRFIQWLV-NH2) are 11918, 0.74, 1580 nM, 0.0158 nM and 100392.
In the same order, the values of `CC[C@H](C)[C@H](NC(=O)[C@H](Cc1ccccc1)NC(=O)[C@H](CCCNC(=N)N)NC(=O)[C@H](CCC(N)=O)NC(=O)[C@H](CC(C)C)NC(=O)[C@H](C)NC(=O)[C@H](C)NC(=O)CNC(=O)[C@H](CCC(=O)O)NC(=O)[C@H](CC(C)C)NC(=O)[C@H](CC(C)C)NC(=O)C(C)(C)NC(=O)[C@H](CO)NC(=O)C(C)(C)NC(=O)[C@H](CC(=O)O)NC(=O)[C@H](CO)NC(=O)[C@@H](NC(=O)[C@H](Cc1ccccc1)NC(=O)[C@@H](NC(=O)CNC(=O)[C@H](CCC(=O)O)NC(=O)C(C)(C)NC(=O)[C@@H](N)Cc1c[nH]cn1)[C@@H](C)O)[C@@H](C)O)C(=O)N[C@@H](CCC(N)=O)C(=O)N[C@@H](Cc1c[nH]c2ccccc12)C(=O)N[C@@H](CC(C)C)C(=O)N[C@H](C(N)=O)C(C)C` [compound 107] (H-H[Aib]EGTFTSD[Aib]S[Aib]LLEGAALQRFIQWLV-NH2) are 3284, 0.15, 1000 nM, 0.158 nM and 6863.
In the same order, the values of `CC[C@H](C)[C@H](NC(=O)[C@H](Cc1ccccc1)NC(=O)[C@H](CCCNC(=N)N)NC(=O)[C@H](CCC(N)=O)NC(=O)[C@H](CC(C)C)NC(=O)[C@H](C)NC(=O)[C@H](C)NC(=O)CNC(=O)[C@H](CCC(=O)O)NC(=O)[C@H](CC(C)C)NC(=O)[C@H](CC(C)C)NC(=O)[C@H](Cc1c[nH]c2ccccc12)NC(=O)[C@H](CO)NC(=O)C(C)(C)NC(=O)[C@H](CC(=O)O)NC(=O)[C@H](CO)NC(=O)[C@@H](NC(=O)[C@H](Cc1ccccc1)NC(=O)[C@@H](NC(=O)CNC(=O)[C@H](CCC(=O)O)NC(=O)C(C)(C)NC(=O)[C@@H](N)Cc1c[nH]cn1)[C@@H](C)O)[C@@H](C)O)C(=O)N[C@@H](CCC(N)=O)C(=O)N[C@@H](Cc1c[nH]c2ccccc12)C(=O)N[C@@H](CC(C)C)C(=O)N[C@H](C(N)=O)C(C)C` [compound 108] (H-H[Aib]EGTFTSD[Aib]SWLLEGAALQRFIQWLV-NH2) are 20603, 0.72, 1260 nM, 0.0794 nM and 14555.
Compound `CC[C@H](C)[C@H](NC(=O)[C@H](Cc1ccccc1)NC(=O)[C@H](CCCNC(=N)N)NC(=O)[C@H](CCC(N)=O)NC(=O)[C@H](CC(C)C)NC(=O)[C@H](C)NC(=O)[C@H](C)NC(=O)CNC(=O)[C@H](CCC(=O)O)NC(=O)[C@H](CC(C)C)NC(=O)[C@H](CC(C)C)NC(=O)[C@H](CCC(=O)O)NC(=O)[C@H](CO)NC(=O)C(C)(C)NC(=O)[C@H](CC(=O)O)NC(=O)[C@H](CO)NC(=O)[C@@H](NC(=O)[C@H](Cc1ccccc1)NC(=O)[C@@H](NC(=O)CNC(=O)[C@H](CCC(=O)O)NC(=O)C(C)(C)NC(=O)[C@@H](N)Cc1c[nH]cn1)[C@@H](C)O)[C@@H](C)O)C(=O)N[C@@H](CCC(N)=O)C(=O)N[C@@H](Cc1c[nH]c2ccccc12)C(=O)N[C@@H](CC(C)C)C(=O)N[C@H](C(N)=O)C(C)C` [compound 109] (H-H[Aib]EGTFTSD[Aib]SELLEGAALQRFIQWLV-NH2) had a Fibril formation in data set [1] of 3301. Further, the “Turbidity (pH 7)” value in data set [2] was 0.08. Besides, the EC50 on SCTR is 3160 nM. In addition, on GLP1R, the EC50 was 0.0794 nM and the “SCTR EC50/GLP1R EC50 ratio” value worked out at 39765.
`CC[C@H](C)[C@H](NC(=O)[C@H](Cc1ccccc1)NC(=O)[C@H](CCCNC(=N)N)NC(=O)[C@H](CCC(N)=O)NC(=O)[C@H](CC(C)C)NC(=O)[C@H](C)NC(=O)[C@H](C)NC(=O)CNC(=O)[C@H](CCC(=O)O)NC(=O)[C@H](CC(C)C)NC(=O)[C@H](CC(C)C)NC(=O)[C@@H](NC(=O)[C@H](CO)NC(=O)C(C)(C)NC(=O)[C@H](CC(=O)O)NC(=O)[C@H](CO)NC(=O)[C@@H](NC(=O)[C@H](Cc1ccccc1)NC(=O)[C@@H](NC(=O)CNC(=O)[C@H](CCC(=O)O)NC(=O)C(C)(C)NC(=O)[C@@H](N)Cc1c[nH]cn1)[C@@H](C)O)[C@@H](C)O)C(C)C)C(=O)N[C@@H](CCC(N)=O)C(=O)N[C@@H](Cc1c[nH]c2ccccc12)C(=O)N[C@@H](CC(C)C)C(=O)N[C@H](C(N)=O)C(C)C` [compound 110] (H-H[Aib]EGTFTSD[Aib]SVLLEGAALQRFIQWLV-NH2): the Fibril formation in data set [1] is recorded as 3449. Moreover, the “Turbidity (pH 7)” value in data set [2] is given as 0.15. Moreover, the EC50 at SCTR is 2000 nM; at GLP1R, 0.2 nM. In addition, the “SCTR EC50/GLP1R EC50 ratio” value on GLP1R is listed as 10257.
In data set [1], `CC[C@H](C)[C@H](NC(=O)[C@H](Cc1ccccc1)NC(=O)[C@H](CCCNC(=N)N)NC(=O)[C@H](CCC(N)=O)NC(=O)[C@H](CC(C)C)NC(=O)[C@H](C)NC(=O)[C@H](C)NC(=O)CNC(=O)[C@H](CCC(=O)O)NC(=O)[C@H](CC(C)C)NC(=O)[C@H](CC(C)C)NC(=O)[C@H](Cc1ccccc1)NC(=O)[C@H](CO)NC(=O)C(C)(C)NC(=O)[C@H](CC(=O)O)NC(=O)[C@H](CO)NC(=O)[C@@H](NC(=O)[C@H](Cc1ccccc1)NC(=O)[C@@H](NC(=O)CNC(=O)[C@H](CCC(=O)O)NC(=O)C(C)(C)NC(=O)[C@@H](N)Cc1c[nH]cn1)[C@@H](C)O)[C@@H](C)O)C(=O)N[C@@H](CCC(N)=O)C(=O)N[C@@H](Cc1c[nH]c2ccccc12)C(=O)N[C@@H](CC(C)C)C(=O)N[C@H](C(N)=O)C(C)C` [compound 111] (H-H[Aib]EGTFTSD[Aib]SFLLEGAALQRFIQWLV-NH2) registered a Fibril formation of 26712. The “Turbidity (pH 7)” value in data set [2] turned out to be 0.24. In addition, the EC50 on SCTR is 2000 nM. For the same compound, on GLP1R, the EC50 is 0.0316 nM and the “SCTR EC50/GLP1R EC50 ratio” value amounted to 70974.
The compound `CC[C@H](C)[C@H](NC(=O)[C@H](Cc1ccccc1)NC(=O)[C@H](CCCNC(=N)N)NC(=O)[C@H](CCC(N)=O)NC(=O)[C@H](CC(C)C)NC(=O)[C@H](C)NC(=O)[C@H](C)NC(=O)CNC(=O)[C@H](CCC(=O)O)NC(=O)[C@H](CC(C)C)NC(=O)[C@H](CC(C)C)NC(=O)[C@H](Cc1ccc(O)cc1)NC(=O)[C@H](CO)NC(=O)[C@@H](NC(=O)[C@H](CC(=O)O)NC(=O)[C@H](CO)NC(=O)[C@@H](NC(=O)[C@H](Cc1ccccc1)NC(=O)[C@@H](NC(=O)CNC(=O)[C@H](CCC(=O)O)NC(=O)C(C)(C)NC(=O)[C@@H](N)Cc1c[nH]cn1)[C@@H](C)O)[C@@H](C)O)[C@@H](C)CC)C(=O)N[C@@H](CCC(N)=O)C(=O)N[C@@H](Cc1c[nH]c2ccccc12)C(=O)N[C@@H](CC(C)C)C(=O)N[C@H](C(N)=O)C(C)C` [compound 112] (H-H[Aib]EGTFTSDISYLLEGAALQRFIQWLV-NH2) gave a Fibril formation in data set [1] of 93630. Further, the “Turbidity (pH 7)” value in data set [2] is reported as 0.29. In addition, on SCTR, the EC50 is 2510 nM. Moreover, at GLP1R, the EC50 was 0.0158 nM and the “SCTR EC50/GLP1R EC50 ratio” value was 164097.
